From article PMC11060137, “A Phase I Study of KIN-3248, an Irreversible Small-molecule Pan-FGFR Inhibitor, in Patients with Advanced FGFR2/3-driven Solid Tumors” (Cancer Research Communications, 2024)
Where two headings read alike, the source gives them in different places.

System: patients with advanced solid tumors harboring FGFR2 and/or FGFR3 gene alterations
Protocol: The study was divided into two parts. […] The secondary objectives included antitumor activity in Part A, determination of pharmacokinetics and pharmacodynamics.
Dose level 1 was started at 5 mg oral daily, and patients were escalated on study to 50 mg daily. On the basis of ongoing efficacy, toxicity, and pharmacokinetic analysis, a planned amendment added additional cohorts up to 80 mg orally daily to define the MTD/RP2D. […] One cycle was 28 days of continuous dosing. Intrapatient dose escalation after safely tolerating two cycles was allowed if per protocol criteria were met. Patients continued therapy until evidence of disease progression, intolerance or unacceptable toxicity, withdrawal of consent, investigator decision, sponsor decision, or death.
Patients were evaluated with medical history, physical examinations, and clinical laboratory on days 1, 8, 15, and 22 of cycle 1; days 1 and 15 from cycle 2 through cycle 5; and day 1 of each subsequent cycle. […] Except for hyperphosphatemia, adverse events (AE) were graded according to the NCI-CTCAE (Common Terminology Criteria for Adverse Events) Version 5.0 at each study visit and for approximately 30 days following end of treatment.
The primary endpoints for the overall study, included: the incidence of DLTs, incidence of AEs, treatment-emergent AEs (TEAE), and treatment-related AEs (TRAE).

SMILES: C=CC(=O)N1C[C@@H](n2nc(C#Cc3c(F)cc4c(ncn4C4CC4)c3F)c(C(N)=O)c2NC)C[C@@H]1COC [KIN-3248]
- Patients with treatment reduced and discontinued because of TEAEs (7 patients): 13.0%
- Patients with treatment-related grade 3 events (11 of 54 patients): 20.4%
- Patients with treatment interrupted because of TEAEs (16 patients): 29.6%
- Patients with TEAE grade ≥3 events (25 of 54 patients): 46.3%
- Patients with TRAEs of any grade (47 of 54 patients): 87.0%
- Patients with TEAEs of any grade (53 of 54 patients): 98.1%
- TRAE of any grade: diarrhea (54 patients): 25.9%
- TRAE of any grade: hyperphosphatemia (54 patients): 64.8%
- TRAE of any grade: stomatitis (54 patients): 16.7%
- Number of dose-limiting toxicities (DLT) (54 patients, 5-50 mg orally daily, DLT at dose level 1 (5 mg): grade 3 drug hypersensitivity reaction): one
- Patient with any TEAE, n (%) (CTCAE (V5) Grade 1–2, N = 54): 28 (51.9%)
- TEAE Alanine aminotransferase increased, n (%) (CTCAE (V5) Grade 1–2, N = 54): 5 (9.3%)
- TEAE Aspartate aminotransferase increased, n (%) (CTCAE (V5) Grade 1–2, N = 54): 4 (7.4%)
- TEAE Blood and lymphatic system disorders, n (%) (CTCAE (V5) Grade 1–2, N = 54): 9 (16.7%)
- TEAE Blood creatinine increased, n (%) (CTCAE (V5) Grade 1–2, N = 54): 7 (13.0%)
- TEAE Constipation, n (%) (CTCAE (V5) Grade 1–2, N = 54): 12 (22.2%)
- TEAE Decreased appetite, n (%) (CTCAE (V5) Grade 1–2, N = 54): 6 (11.1%)
- TEAE Diarrhea, n (%) (CTCAE (V5) Grade 1–2, N = 54): 17 (31.5%)
- TEAE Dry mouth, n (%) (CTCAE (V5) Grade 1–2, N = 54): 8 (14.8%)
- TEAE Eye disorders, n (%) (CTCAE (V5) Grade 1–2, N = 54): 12 (22.2%)
- TEAE Fatigue, n (%) (CTCAE (V5) Grade 1–2, N = 54): 11 (20.4%)
- TEAE Gastrointestinal disorders, n (%) (CTCAE (V5) Grade 1–2, N = 54): 35 (64.8%)
- TEAE General disorders and administration site conditions, n (%) (CTCAE (V5) Grade 1–2, N = 54): 18 (33.3%)
- TEAE Hypercalcemia, n (%) (CTCAE (V5) Grade 1–2, N = 54): 5 (9.3%)
- TEAE Hyperphosphatemia, n (%) (CTCAE (V5) Grade 1–2, N = 54): 29 (53.7%)
- TEAE Infections and infestations, n (%) (CTCAE (V5) Grade 1–2, N = 54): 4 (7.4%)
- TEAE Investigations, n (%) (CTCAE (V5) Grade 1–2, N = 54): 19 (35.2%)
- TEAE Metabolism and nutrition disorders, n (%) (CTCAE (V5) Grade 1–2, N = 54): 30 (55.6%)
- TEAE Musculoskeletal and connective tissue disorders, n (%) (CTCAE (V5) Grade 1–2, N = 54): 14 (25.9%)
- TEAE Nausea, n (%) (CTCAE (V5) Grade 1–2, N = 54): 6 (11.1%)
- TEAE Nervous system disorders, n (%) (CTCAE (V5) Grade 1–2, N = 54): 7 (13.0%)
- TEAE Psychiatric disorders, n (%) (CTCAE (V5) Grade 1–2, N = 54): 7 (13.0%)
- TEAE Respiratory, thoracic, and mediastinal disorders, n (%) (CTCAE (V5) Grade 1–2, N = 54): 7 (13.0%)
- TEAE Skin and subcutaneous tissue disorders, n (%) (CTCAE (V5) Grade 1–2, N = 54): 14 (25.9%)
- TEAE Stomatitis, n (%) (CTCAE (V5) Grade 1–2, N = 54): 11 (20.4%)
- TEAE Vascular disorders, n (%) (CTCAE (V5) Grade 1–2, N = 54): 5 (9.3%)
- Patient with any TEAE, n (%) (CTCAE (V5) Grade 3, N = 54): 18 (33.3%)
- TEAE Alanine aminotransferase increased, n (%) (CTCAE (V5) Grade 3, N = 54): 1 (1.9%)
- TEAE Anemia, n (%) (CTCAE (V5) Grade 3, N = 54): 2 (3.7%)
- TEAE Aspartate aminotransferase increased, n (%) (CTCAE (V5) Grade 3, N = 54): 2 (3.7%)
- TEAE Blood and lymphatic system disorders, n (%) (CTCAE (V5) Grade 3, N = 54): 3 (5.6%)
- TEAE Blood creatinine increased, n (%) (CTCAE (V5) Grade 3, N = 54): 0
- TEAE Constipation, n (%) (CTCAE (V5) Grade 3, N = 54): 0
- TEAE Decreased appetite, n (%) (CTCAE (V5) Grade 3, N = 54): 0
- TEAE Diarrhea, n (%) (CTCAE (V5) Grade 3, N = 54): 0
- TEAE Dry mouth, n (%) (CTCAE (V5) Grade 3, N = 54): 0
- TEAE Eye disorders, n (%) (CTCAE (V5) Grade 3, N = 54): 0
- TEAE Fatigue, n (%) (CTCAE (V5) Grade 3, N = 54): 0
- TEAE Gastrointestinal disorders, n (%) (CTCAE (V5) Grade 3, N = 54): 5 (9.3%)
- TEAE General disorders and administration site conditions, n (%) (CTCAE (V5) Grade 3, N = 54): 0
- TEAE Hypercalcemia, n (%) (CTCAE (V5) Grade 3, N = 54): 1 (1.9%)
- TEAE Hyperphosphatemia, n (%) (CTCAE (V5) Grade 3, N = 54): 8 (14.8%)
- TEAE Infections and infestations, n (%) (CTCAE (V5) Grade 3, N = 54): 4 (7.4%)
- TEAE Investigations, n (%) (CTCAE (V5) Grade 3, N = 54): 2 (3.7%)
- TEAE Metabolism and nutrition disorders, n (%) (CTCAE (V5) Grade 3, N = 54): 10 (18.5%)
- TEAE Musculoskeletal and connective tissue disorders, n (%) (CTCAE (V5) Grade 3, N = 54): 1 (1.9%)
- TEAE Nausea, n (%) (CTCAE (V5) Grade 3, N = 54): 0
- TEAE Nervous system disorders, n (%) (CTCAE (V5) Grade 3, N = 54): 2 (3.7%)
- TEAE Psychiatric disorders, n (%) (CTCAE (V5) Grade 3, N = 54): 0
- TEAE Respiratory, thoracic, and mediastinal disorders, n (%) (CTCAE (V5) Grade 3, N = 54): 1 (1.9%)
